Reference: patent US11206830B2, “Herbicidal composition comprising glufosinate or a salt thereof and pyroxasulfone” (BASF SE, priority 2008, dated 2021)

Tests used:
Format in all cases: in vivo
[1] = test system: Alopecurus myosuroides (ALOMY); experiment: greenhouse post-emergence herbicidal activity on ALOMY; settings: solo application
Source text: (§1) For the post-emergence treatment, the test plants were first grown to a height of 3 to 20 cm, depending on the plant habit, and only then treated. Here, the herbicidal compositions were suspended or emulsified in water as distribution medium and sprayed using finely distributing nozzles.
(§2) The respective herbicides B and/or safener were formulated as 10% by weight strength suspension concentrate and introduced to the spray liquor with the amount of solvent system used for applying the active compound. Herbicides A, C and/or safener were used as commercially available formulations and introduced to the spray liquor with the amount of solvent system used for applying the active compound. In the examples, the solvent used was water.
(§3) The test period extended over 21 days. During this time, the plants were tended, and their response to the treatments with active compound was evaluated.
(§4) The evaluation for the damage caused by the chemical compositions was carried out using a scale from 0 to 100%, compared to the untreated control plants. Here, 0 means no damage and 100 means complete destruction of the plants.
(§5) The value E, which is to be expected if the activity of the individual compounds is just additive, was calculated using the method of S. R. Colby (1967) “Calculating synergistic and antagonistic responses of herbicide combinations”, Weeds 15, p. 22 ff. For two component mixtures the value E was calculated by the following formula E=X+Y−(X·Y/100)
(§6) For three component mixtures the value E was calculated by the following formula E=X+Y+Z−(XY+XZ+YZ)/100+(X·YZ/10000) where X=effect in percent using herbicide A at an application rate a; • Y=effect in percent using herbicide B at an application rate b; • Z=effect in percent using herbicide C at an application rate c; • E=expected effect (in %) of A+B at application rates a+b. or • E=expected effect (in %) of A+B+C at application rates a+b+c.
(§7) If the value observed in this manner is higher than the value E calculated according to Colby, a synergistic effect is present.
(§8) Tables 1 to 12 relate to the herbicidal activity of the individual actives and of their combinations in post-emergence application assessed 20 DAT.

[2] = test system: Digitaria sanguinalis (DIGSA); experiment: greenhouse post-emergence herbicidal activity on DIGSA; settings: solo application
Source text: as §1, §2, §3, §4, §5, §6, §7, §8

[3] = test system: Chenopodium album (CHEAL); experiment: greenhouse post-emergence herbicidal activity on CHEAL; settings: solo application; for inhibition at 6.25 g/ha: 6.25 g ai/ha
Source text: as §1, §2, §3, §4, §5, §6, §7, §8

Galium aparine (GALAP) = experiment: greenhouse post-emergence herbicidal activity on GALAP; settings: solo application; for inhibition at 5 g/ha: 5 g ai/ha
Source text: as §1, §2, §3, §4, §5, §6, §7, §8

[4] = test system: Matricaria inermis (MATIN); experiment: greenhouse post-emergence herbicidal activity on MATIN; settings: solo application
Source text: as §1, §2, §3, §4, §5, §6, §7, §8

Avena fatua (AVEFA) = experiment: greenhouse post-emergence herbicidal activity on AVEFA; settings: 480 h, solo application, 6.25 g ai/ha, read-out: % activity 20 DAT
Source text: as §1, §2, §3, §4, §5, §6, §7, §8

[5] = test system: Lolium multiflorum (LOLMU); experiment: greenhouse post-emergence herbicidal activity on LOLMU; settings: solo application; for inhibition at 5 g/ha: 5 g ai/ha
Source text: as §1, §2, §3, §4, §5, §6, §7, §8

[6] = test system: Abutilon theophrasti (ABUTH); experiment: greenhouse post-emergence herbicidal activity on ABUTH; settings: solo application; for inhibition at 5 g/ha: 5 g ai/ha
Source text: as §1, §2, §3, §4, §5, §6, §7, §8

[7] = test system: Polygonum convolvulus (POLCO); experiment: greenhouse post-emergence herbicidal activity on POLCO; settings: solo application
Source text: as §1, §2, §3, §4, §5, §6, §7, §8

Setaria viridis (SETVI) = experiment: greenhouse post-emergence herbicidal activity on SETVI; settings: 480 h, solo application, 100 g ai/ha, read-out: % activity 20 DAT
Source text: as §1, §2, §3
(§9) The evaluation for the damage caused by the chemical compositions was carried out using a scale from 0 to 100%, compared to the untreated control plants. […]
(§10) The value E, which is to be expected if the activity of the individual compounds is just additive, was calculated using the method of S. R. Colby (1967) “Calculating synergistic and antagonistic responses of herbicide combinations”, Weeds 15, p. […] For two component mixtures the value E was calculated by the following formula E=X+Y−(X·Y/100)
as §6, §7, §8

[8] = test system: Amaranthus retroflexus (AMARE); experiment: greenhouse post-emergence herbicidal activity on AMARE; settings: 480 h, solo application, 100 g ai/ha, read-out: % activity 20 DAT
Source text: as §1, §2, §3, §9, §10, §6, §7, §8

[9] = Alopecurus myosuroides, 480 h, 6.25 g ai/ha, read-out: % activity 20 DAT
[10] = Digitaria sanguinalis, 480 h, 6.25 g ai/ha, read-out: % activity 20 DAT
[11] = Chenopodium album, 480 h, read-out: % activity 20 DAT
[12] = Lolium multiflorum, 480 h, read-out: % activity 20 DAT
[13] = Abutilon theophrasti, 480 h, read-out: % activity 20 DAT
[14] = Galium aparine, 480 h, read-out: % activity 20 DAT

## C#CCN1C(=O)COc2cc(F)c(N3C(=O)C4=C(CCCC4)C3=O)cc21 [flumioxazin]
[1]; [9]
  inhibition at 6.25 g/ha: 20%
[1]; Alopecurus myosuroides, 480 h, 12.5 g ai/ha, read-out: % activity 20 DAT
  inhibition at 12.5 g/ha: 20%
[2]; [10]
  inhibition at 6.25 g/ha: 15%
[3]; [11]
  inhibition at 6.25 g/ha: 0%
[3]; Chenopodium album, 480 h, 12.5 g ai/ha, read-out: % activity 20 DAT
  inhibition at 12.5 g/ha: 30%
Galium aparine (GALAP); Galium aparine, 480 h, 6.25 g ai/ha, read-out: % activity 20 DAT
  inhibition at 6.25 g/ha: 30%
Galium aparine (GALAP); Galium aparine, 480 h, 12.5 g ai/ha, read-out: % activity 20 DAT
  inhibition at 12.5 g/ha: 30%
[4]; Matricaria, 480 h, 6.25 g ai/ha, read-out: % activity 20 DAT
  inhibition at 6.25 g/ha: 65%
Avena fatua (AVEFA)
  inhibition at 6.25 g/ha: 35%

## COCc1cnc(C2=NC(C)(C(C)C)C(=O)N2)c(C(=O)O)c1 (centres unmarked) [imazamox]
[1]; Alopecurus myosuroides, 480 h, 10 g ai/ha, read-out: % activity 20 DAT
  inhibition at 10 g/ha: 30%
[2]; Digitaria sanguinalis, 480 h, 10 g ai/ha, read-out: % activity 20 DAT
  inhibition at 10 g/ha: 20%
[5]; [12]
  inhibition at 5 g/ha: 40%
[5]; Lolium multiflorum, 480 h, 10 g ai/ha, read-out: % activity 20 DAT
  inhibition at 10 g/ha: 60%
[6]; [13]
  inhibition at 5 g/ha: 50%
[3]; Chenopodium album, 480 h, 5 g ai/ha, read-out: % activity 20 DAT
  inhibition at 5 g/ha: 15%
[3]; Chenopodium album, 480 h, 10 g ai/ha, read-out: % activity 20 DAT
  inhibition at 10 g/ha: 30%
Galium aparine (GALAP); [14]
  inhibition at 5 g/ha: 20%
Galium aparine (GALAP); Galium aparine, 480 h, 10 g ai/ha, read-out: % activity 20 DAT
  inhibition at 10 g/ha: 30%
[4]; Matricaria, 480 h, 5 g ai/ha, read-out: % activity 20 DAT
  inhibition at 5 g/ha: 25%

## Cc1cnc(C2=NC(=O)C(C)(C(C)C)N2)c(C(=O)O)c1 (centres unmarked) [imazapic]
[1]; Alopecurus myosuroides, 480 h, 20 g ai/ha, read-out: % activity 20 DAT
  inhibition at 20 g/ha: 45%
[2]; Digitaria sanguinalis, 480 h, 5 g ai/ha, read-out: % activity 20 DAT
  inhibition at 5 g/ha: 50%
[5]; [12]
  inhibition at 5 g/ha: 60%
[6]; [13]
  inhibition at 5 g/ha: 60%
[3]; Chenopodium album, 480 h, 20 g ai/ha, read-out: % activity 20 DAT
  inhibition at 20 g/ha: 40%
Galium aparine (GALAP); [14]
  inhibition at 5 g/ha: 55%

## CS(=O)(=O)c1cc(C(F)(F)F)ccc1C(=O)c1cnoc1C1CC1 [isoxaflutole]
[1]; [9]
  inhibition at 6.25 g/ha: 0%
[2]; [10]
  inhibition at 6.25 g/ha: 15%
[6]; Abutilon theophrasti, 480 h, 6.25 g ai/ha, read-out: % activity 20 DAT
  inhibition at 6.25 g/ha: 55%
[3]; [11]
  inhibition at 6.25 g/ha: 75%
[7]; Fallopia convolvulus, 480 h, 25 g ai/ha, read-out: % activity 20 DAT
  inhibition at 25 g/ha: 45%

## CCC(CC)Nc1c([N+](=O)[O-])cc(C)c(C)c1[N+](=O)[O-] [pendimethalin]
[1]; Alopecurus myosuroides, 480 h, 400 g ai/ha, read-out: % activity 20 DAT
  inhibition at 400 g/ha: 40%
[5]; Lolium multiflorum, 480 h, 200 g ai/ha, read-out: % activity 20 DAT
  inhibition at 200 g/ha: 30%
[4]; Matricaria, 480 h, 100 g ai/ha, read-out: % activity 20 DAT
  inhibition at 100 g/ha: 0%
[4]; Matricaria, 480 h, 800 g ai/ha, read-out: % activity 20 DAT
  inhibition at 800 g/ha: 0%
Setaria viridis (SETVI)
  inhibition at 100 g/ha: 30%
[8]
  inhibition at 100 g/ha: 75%

## O=C(Nc1ccc(F)cc1)c1cccc(Oc2cccc(C(F)(F)F)c2)n1 [picolinafen]
[1]; 6.25 g ai/ha
  % activity 20 DAT: 0%
[1]; 25 g ai/ha
  % activity 20 DAT: 0%
[2]; 6.25 g ai/ha
  % activity 20 DAT: 30%
[2]; 12.5 g ai/ha
  % activity 20 DAT: 45%
[5]; 12.5 g ai/ha
  % activity 20 DAT: 10%
[6]; 6.25 g ai/ha
  % activity 20 DAT: 30%
[6]; 25 g ai/ha
  % activity 20 DAT: 60%
[3]; 12.5 g ai/ha
  % activity 20 DAT: 30%
Galium aparine (GALAP); 6.25 g ai/ha
  % activity 20 DAT: 30%
[4]; 50 g ai/ha
  % activity 20 DAT: 60%
[7]; 50 g ai/ha
  % activity 20 DAT: 80%
